One may read the IC50 as the point on the concentration scale where inhibition reaches its midpoint. Usually Ki stands for a measure of affinity in units of concentration, obtained from inhibition or displacement. A higher Ki goes with a looser hold on the target. Usually inhibition stands for the drop in the measured response relative to a control, in per cent. A low value points to little suppression.

We go through 13 compounds from ChEMBL document CHEMBL1142718, “Novel indolylindazolylmaleimides as inhibitors of protein kinase C-beta: synthesis, biological activity, and cardiovascular safety” (J Med Chem, 2005).

Where only a bound is given, the exact number is not on record here.

Assay [1] deals with Protein kinase C gamma type (Homo sapiens, UniProt P05129). Description: Inhibition of human Protein kinase C gamma using [gamma-33P]-ATP.
For assay [2], the target named is T1, Protein kinase C beta type (Homo sapiens, UniProt P05771). Description: Inhibition of human Protein kinase C beta 1 using [gamma-33P]-ATP.
T1 sequence (P05771 whole entry): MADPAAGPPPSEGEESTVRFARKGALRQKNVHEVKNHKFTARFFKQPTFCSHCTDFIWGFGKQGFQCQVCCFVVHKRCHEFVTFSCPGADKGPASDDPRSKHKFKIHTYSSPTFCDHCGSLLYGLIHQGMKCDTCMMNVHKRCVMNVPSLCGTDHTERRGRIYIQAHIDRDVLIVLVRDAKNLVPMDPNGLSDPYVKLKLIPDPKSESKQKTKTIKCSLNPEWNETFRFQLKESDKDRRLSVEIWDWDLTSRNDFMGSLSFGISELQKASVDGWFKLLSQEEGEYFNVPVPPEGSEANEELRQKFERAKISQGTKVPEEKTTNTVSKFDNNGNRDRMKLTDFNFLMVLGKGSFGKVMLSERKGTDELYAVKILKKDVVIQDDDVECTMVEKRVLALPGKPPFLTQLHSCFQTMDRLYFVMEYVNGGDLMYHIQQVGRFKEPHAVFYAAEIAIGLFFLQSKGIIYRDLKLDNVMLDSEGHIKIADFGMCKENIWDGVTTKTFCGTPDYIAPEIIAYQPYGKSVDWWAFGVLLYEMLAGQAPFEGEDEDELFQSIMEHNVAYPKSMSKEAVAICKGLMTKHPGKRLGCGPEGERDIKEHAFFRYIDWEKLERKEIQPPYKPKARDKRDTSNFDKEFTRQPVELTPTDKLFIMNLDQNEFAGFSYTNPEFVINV
Assay [3] has as its target T1, Protein kinase C beta type. As to the kind of experiment: Inhibition of IL-8 release by HEK293 cells expressing PKC-beta2. It is filed as functional, cell-based.
Assay [4] deals with Voltage-gated inwardly rectifying potassium channel KCNH2 (Homo sapiens, UniProt Q12809).
Description: Inhibition of [3H]astemizole binding to Potassium channel HERG
Assay [5] in a line: Inhibition of Calcium/calmodulin-dependent protein kinase type II in P19 cells. It is filed as cell-based, Mus musculus.
Assay [6] in a line: Inhibition of Casein kinase 1 in P19 cells. It is filed as cell-based, Mus musculus.
Assay [7] concerns the target Cyclin-dependent kinase 1 (Mus musculus, UniProt P11440). Description: Inhibition of Cyclin-dependent kinase 1 in P19 cells. The assay is classed as cell-based.
Assay [8] addresses Platelet-derived growth factor receptor (Mus musculus, UniProt P05622+P26618). As to the kind of experiment: Inhibition of Platelet-derived growth factor receptor in P19 cells. The assay is classed as cell-based.
For the next assay, the target named is Casein kinase 2 (Mus musculus, UniProt Q60737+P67871+O54833+Q8CH19). As to the kind of experiment: Inhibition of Casein kinase 2 of P19 cells. It is filed as cell-based.
Assay [9] is described as follows: Inhibition of Protein Kinase A in P19 cells. The assay is classed as cell-based, Mus musculus.
Assay [10] can be described thus: Inhibition of Vascular endothelial growth factor receptor in P19 cells. It is filed as cell-based, Mus musculus.
For assay [11], the target named is Mitogen-activated protein kinase 1 (Mus musculus, UniProt P63085). The assay is classed as cell-based, P19.
Sequence of Mitogen-activated protein kinase 1 (P63085 whole entry): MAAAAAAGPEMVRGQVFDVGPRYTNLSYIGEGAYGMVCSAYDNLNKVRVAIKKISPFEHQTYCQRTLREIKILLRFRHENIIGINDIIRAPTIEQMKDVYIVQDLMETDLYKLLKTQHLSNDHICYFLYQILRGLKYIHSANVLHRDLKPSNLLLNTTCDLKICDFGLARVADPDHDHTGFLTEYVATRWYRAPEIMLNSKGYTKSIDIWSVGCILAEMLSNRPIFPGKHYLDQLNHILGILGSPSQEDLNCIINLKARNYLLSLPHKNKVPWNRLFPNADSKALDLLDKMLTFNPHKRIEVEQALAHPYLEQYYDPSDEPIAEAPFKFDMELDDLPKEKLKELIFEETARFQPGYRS
Description: Inhibition of Mitogen-activated protein kinase/extracellular signal-regulated kinase 2 in P19 cells
The target in assay [12] is Protein kinase C alpha type (Homo sapiens, UniProt P17252). Description: Inhibition of human Protein kinase C alpha using [gamma-33P]-ATP.
For assay [13], the target named is Epidermal growth factor receptor (Mus musculus, UniProt Q01279). As to the kind of experiment: Inhibition of Epidermal growth factor receptor in P19 cells. The assay is classed as cell-based.
Sequence of Epidermal growth factor receptor (Q01279 whole entry): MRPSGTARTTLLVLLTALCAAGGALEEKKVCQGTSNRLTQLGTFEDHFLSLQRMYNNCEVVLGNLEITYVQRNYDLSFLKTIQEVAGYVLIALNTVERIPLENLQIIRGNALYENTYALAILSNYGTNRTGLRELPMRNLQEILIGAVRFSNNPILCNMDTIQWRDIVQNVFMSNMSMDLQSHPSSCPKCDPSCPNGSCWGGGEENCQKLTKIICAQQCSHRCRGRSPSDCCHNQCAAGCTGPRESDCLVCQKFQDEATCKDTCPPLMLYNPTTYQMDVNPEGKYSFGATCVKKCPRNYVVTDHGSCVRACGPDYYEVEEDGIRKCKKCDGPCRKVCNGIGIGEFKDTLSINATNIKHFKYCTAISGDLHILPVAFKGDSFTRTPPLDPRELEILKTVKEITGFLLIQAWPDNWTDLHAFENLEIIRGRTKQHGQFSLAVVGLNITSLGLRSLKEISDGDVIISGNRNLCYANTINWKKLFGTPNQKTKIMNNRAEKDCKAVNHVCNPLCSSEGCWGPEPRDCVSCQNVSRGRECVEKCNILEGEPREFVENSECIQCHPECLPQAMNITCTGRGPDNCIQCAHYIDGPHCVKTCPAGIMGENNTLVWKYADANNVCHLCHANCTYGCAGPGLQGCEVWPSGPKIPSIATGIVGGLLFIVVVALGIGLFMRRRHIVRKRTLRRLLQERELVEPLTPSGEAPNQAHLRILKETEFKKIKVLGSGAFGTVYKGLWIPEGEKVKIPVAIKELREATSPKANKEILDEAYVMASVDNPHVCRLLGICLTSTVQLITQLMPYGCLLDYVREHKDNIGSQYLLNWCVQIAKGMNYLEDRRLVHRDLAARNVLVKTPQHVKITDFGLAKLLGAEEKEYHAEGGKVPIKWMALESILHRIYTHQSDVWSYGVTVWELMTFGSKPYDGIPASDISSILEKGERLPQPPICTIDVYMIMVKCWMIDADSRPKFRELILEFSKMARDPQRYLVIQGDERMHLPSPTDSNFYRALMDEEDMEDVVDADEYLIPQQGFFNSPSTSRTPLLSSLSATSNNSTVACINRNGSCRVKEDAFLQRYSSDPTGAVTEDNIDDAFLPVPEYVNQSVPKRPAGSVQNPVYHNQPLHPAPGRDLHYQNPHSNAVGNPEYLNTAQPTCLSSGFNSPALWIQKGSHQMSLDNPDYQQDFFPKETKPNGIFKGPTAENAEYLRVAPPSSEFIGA
The target in assay [14] is T1, Protein kinase C beta type. As to the kind of experiment: Inhibition of human Protein kinase C beta 2 using [gamma-33P]-ATP.
Assay [15] can be described thus: Inhibition of Protein kinase C epsilon.
The target of assay [16] is T2, Protein kinase C zeta type (Homo sapiens) (UniProt Q05513).
T2 sequence (whole entry): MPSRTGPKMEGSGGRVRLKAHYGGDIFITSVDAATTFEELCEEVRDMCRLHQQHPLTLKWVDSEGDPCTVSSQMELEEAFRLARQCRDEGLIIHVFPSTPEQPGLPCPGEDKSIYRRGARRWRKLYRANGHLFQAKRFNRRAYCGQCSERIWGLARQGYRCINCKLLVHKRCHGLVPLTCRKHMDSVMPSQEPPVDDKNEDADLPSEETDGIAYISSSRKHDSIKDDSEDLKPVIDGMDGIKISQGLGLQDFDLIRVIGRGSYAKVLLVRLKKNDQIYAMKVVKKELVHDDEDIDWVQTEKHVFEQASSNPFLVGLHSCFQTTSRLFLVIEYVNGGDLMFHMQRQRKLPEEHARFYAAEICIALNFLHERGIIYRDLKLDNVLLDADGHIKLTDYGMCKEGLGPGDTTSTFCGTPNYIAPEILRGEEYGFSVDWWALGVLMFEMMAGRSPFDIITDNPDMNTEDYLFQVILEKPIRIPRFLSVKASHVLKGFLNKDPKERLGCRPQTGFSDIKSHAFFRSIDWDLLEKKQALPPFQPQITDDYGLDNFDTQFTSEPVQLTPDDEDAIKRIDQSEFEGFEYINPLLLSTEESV
Description: Inhibition of Protein kinase C zeta at 10 uM.

The target in assay [17] is Protein kinase C delta type (Homo sapiens, UniProt Q05655). Description: Inhibition of Protein kinase C delta.
A further assay concerns the target Insulin receptor (Mus musculus, UniProt P15208). As to the kind of experiment: Inhibition of Insulin receptor kinase in P19 cells. The assay is classed as cell-based.
The target in assay [18] is T3, Protein kinase C zeta type (Homo sapiens, UniProt Q05513).
T3 sequence (Q05513 whole entry): T2 sequence (whole entry)
As to the kind of experiment: Inhibition of Protein kinase C zeta.

Sequence of Cyclin-dependent kinase 1 (P11440 whole entry): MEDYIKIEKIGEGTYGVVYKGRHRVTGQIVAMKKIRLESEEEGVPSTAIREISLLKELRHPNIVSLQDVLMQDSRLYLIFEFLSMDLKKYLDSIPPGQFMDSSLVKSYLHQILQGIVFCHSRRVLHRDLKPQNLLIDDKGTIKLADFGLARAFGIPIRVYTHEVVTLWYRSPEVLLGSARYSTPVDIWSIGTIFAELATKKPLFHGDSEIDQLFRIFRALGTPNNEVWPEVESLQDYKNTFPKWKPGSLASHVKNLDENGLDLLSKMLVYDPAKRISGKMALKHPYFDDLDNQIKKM
Sequence of Insulin receptor (P15208 28-748 limits assumed): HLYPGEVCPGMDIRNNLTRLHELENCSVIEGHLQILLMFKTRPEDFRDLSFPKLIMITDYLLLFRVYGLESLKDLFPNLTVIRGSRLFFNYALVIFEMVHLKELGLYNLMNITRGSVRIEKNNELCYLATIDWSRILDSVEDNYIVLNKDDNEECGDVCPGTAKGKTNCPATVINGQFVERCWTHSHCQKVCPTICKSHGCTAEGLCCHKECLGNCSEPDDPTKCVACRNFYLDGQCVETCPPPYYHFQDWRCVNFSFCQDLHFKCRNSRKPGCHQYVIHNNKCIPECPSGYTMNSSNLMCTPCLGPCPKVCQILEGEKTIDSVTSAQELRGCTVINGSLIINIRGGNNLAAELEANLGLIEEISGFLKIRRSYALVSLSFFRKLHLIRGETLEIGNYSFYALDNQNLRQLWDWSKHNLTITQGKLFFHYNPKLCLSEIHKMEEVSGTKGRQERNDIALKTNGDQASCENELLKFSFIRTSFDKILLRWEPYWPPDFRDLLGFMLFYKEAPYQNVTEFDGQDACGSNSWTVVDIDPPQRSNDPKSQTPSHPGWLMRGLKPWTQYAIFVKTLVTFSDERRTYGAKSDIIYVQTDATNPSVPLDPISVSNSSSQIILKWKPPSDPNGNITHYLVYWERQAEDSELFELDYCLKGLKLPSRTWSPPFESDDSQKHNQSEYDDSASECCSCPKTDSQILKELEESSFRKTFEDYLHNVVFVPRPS
Sequence of Insulin receptor (P15208 753-1372 limits assumed): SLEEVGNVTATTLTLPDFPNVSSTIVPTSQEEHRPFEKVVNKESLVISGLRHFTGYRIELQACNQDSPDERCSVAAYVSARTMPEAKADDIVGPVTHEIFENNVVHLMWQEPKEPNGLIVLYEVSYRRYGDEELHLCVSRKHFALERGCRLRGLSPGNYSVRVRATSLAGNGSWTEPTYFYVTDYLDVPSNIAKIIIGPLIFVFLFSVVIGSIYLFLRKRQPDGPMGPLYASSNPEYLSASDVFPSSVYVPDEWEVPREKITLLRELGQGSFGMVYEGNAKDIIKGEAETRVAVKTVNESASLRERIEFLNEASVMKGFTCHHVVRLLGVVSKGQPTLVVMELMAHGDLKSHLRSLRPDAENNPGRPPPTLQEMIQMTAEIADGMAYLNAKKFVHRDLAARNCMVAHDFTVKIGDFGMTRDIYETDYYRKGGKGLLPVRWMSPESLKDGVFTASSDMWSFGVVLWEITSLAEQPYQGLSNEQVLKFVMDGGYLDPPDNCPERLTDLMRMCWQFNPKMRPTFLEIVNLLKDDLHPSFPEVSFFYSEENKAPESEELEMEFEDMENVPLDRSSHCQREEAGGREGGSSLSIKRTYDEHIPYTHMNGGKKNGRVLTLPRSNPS

As for `CN(C)CCCn1nc(C2=C(c3cn(-c4cncc5ccccc45)c4ccccc34)C(=O)NC2=O)c2ccccc21`, the IC50 came to 0.25 µM in [1], 0.092 µM in assay [2] and 0.086 µM in assay [3].
For `O=C1NC(=O)C(c2nn(CCCN3CCOCC3)c3ccccc23)=C1c1cn(-c2ccc3ccccc3c2)c2ccccc12`, the values for the IC50 in [2] and in assay [3] were 0.19 µM and 0.072 µM, respectively. Moreover, the Ki in assay [4] came out at 0.85 µM.
Turning to `CN[C@@H]1C[C@H]2O[C@@](C)([C@@H]1OC)n1c3ccccc3c3c4c(c5c6ccccc6n2c5c31)C(=O)NC4` [STAUROSPORINE], the IC50 in assay [5] is 0.006 µM; in [6] it was 1.4 µM; in [7] it was 0.008 µM; in assay [8] it was 0.002 µM; against Casein kinase 2, more than 10 µM; in [9] it was 0.004 µM. In assay [10], this compound displayed an IC50 of 0.014 µM.
`CN(C)CCCn1nc(C2=C(c3cn(-c4cccs4)c4ccccc34)C(=O)NC2=O)c2ccccc21`: the IC50 in [11] was more than 10 µM; in assay [12], 0.22 µM; in [1], 0.28 µM; in assay [13] it was more than 10 µM; in assay [2], 0.015 µM; in assay [14], 0.01 µM. For the same compound, the concentration for half-maximal inhibition (IC50) in assay [5] was 7 µM; in assay [15], 0.14 µM; in assay [17], 0.086 µM; in [6] it was more than 10 µM; in [8], 2.2 µM; against Casein kinase 2, more than 10 µM. Further, the IC50 in assay [9] is 6.2 µM; on Insulin receptor it was more than 10 µM; in [10] it was 5 µM; in [3], 0.075 µM. For the same compound, the inhibition in [16] turned out to be 57%.
Take `CN(C)CCCn1nc(C2=C(c3cn(-c4ccccc4)c4ccccc34)C(=O)NC2=O)c2ccccc21`: the 50% inhibitory concentration (IC50) in [12] stood at 0.15 µM; in [1], 0.37 µM; in assay [2], 0.046 µM; in assay [14], 0.013 µM.
On to `CN(C)CCCn1nc(C2=C(c3cn(-c4csc5ccccc45)c4ccccc34)C(=O)NC2=O)c2ccccc21`, for which the IC50 in assay [11] is more than 10 µM; in assay [13] it was more than 10 µM; in assay [2] it was 0.086 µM; in [5], 5.6 µM; in [15], 3.1 µM; in assay [17], 1.5 µM. Also, the IC50 (in assay [6]; in assay [7]; in assay [8]; at Casein kinase 2; in assay [9]; against Insulin receptor) was more than 10 µM throughout. Further, the IC50 was more than 10 µM in assay [10], more than 10 µM in [18] and 0.63 µM in assay [3].
Regarding `O=C1NC(=O)C(c2nn(CCCN3CCCC3)c3ccccc23)=C1c1cn(-c2ccc3ccccc3c2)c2ccccc12`, the figures for the IC50 in [2] and in [3] were 0.12 µM and 0.17 µM, respectively. In assay [4], this compound registered a Ki of 0.011 µM.
For the compound `CN(C)CCCn1nc(C2=C(c3cn(-c4cnc5ccccc5c4)c4ccccc34)C(=O)NC2=O)c2ccccc21`, the 50% inhibitory concentration (IC50) in [11] was more than 10 µM; in assay [13], more than 10 µM; in assay [2] it was 0.007 µM; in assay [5], more than 10 µM; in assay [15] it was 0.14 µM; in assay [17], 0.031 µM. Moreover, the IC50 was more than 10 µM in assay [6]; 1.6 µM in assay [7]; 5.9 µM in [8]; more than 10 µM against Casein kinase 2; more than 10 µM in [9]; more than 10 µM on Insulin receptor. The values for the IC50 in assay [10], in [18] and in [3] were more than 10 µM, 5.7 µM and 0.02 µM, respectively.
Turning to `CN(C)CCCn1nc(C2=C(c3cn(-c4ccc5ccccc5c4)c4ccccc34)C(=O)NC2=O)c2ccccc21`, the IC50 in [11] is more than 10 µM; in [1] it was 0.11 µM; in assay [13] it was more than 10 µM; in [2], 0.033 µM; in [5], 6.1 µM; in assay [15] it was 0.33 µM. Besides, the IC50 in assay [17] was 0.49 µM; in assay [6], more than 10 µM; in assay [7], 1.3 µM; in assay [8] it was 5.9 µM; against Casein kinase 2, more than 10 µM; in assay [9], more than 10 µM. Besides, the 50% inhibitory concentration (IC50) was more than 10 µM on Insulin receptor, 1 µM in [10], 6.2 µM in assay [18] and 0.024 µM in assay [3].
Turning to `CN(C)CCCn1nc(C2=C(c3cn(-c4cccc5ccccc45)c4ccccc34)C(=O)NC2=O)c2ccccc21`, the IC50 in assay [11] is more than 10 µM; in assay [12], 1.2 µM; in [1] it was 3.4 µM; in assay [13], more than 10 µM; in assay [2], 0.087 µM; in assay [5], more than 10 µM. Also, the IC50 in [15] was 4.2 µM; in [17], 2.2 µM; in [6], more than 10 µM; in assay [7], 1.9 µM; in assay [8], more than 10 µM; against Casein kinase 2, more than 10 µM. For the same compound, the IC50 in assay [9] is more than 10 µM; against Insulin receptor it was more than 10 µM; in [10] it was 6.9 µM; in assay [18], more than 10 µM; in [3] it was 0.6 µM.
With `O=C1NC(=O)C(c2cn(-c3cccnc3)c3ccccc23)=C1c1[nH]nc2ccccc12`, the IC50 in assay [12] came out at 1 µM; in assay [2], 0.46 µM; in [14], 0.22 µM.
Take `CN(C)CCCn1nc(C2=C(c3cn(-c4cccnc4)c4ccccc34)C(=O)NC2=O)c2ccccc21`: the IC50 in [11] was more than 10 µM; in assay [12], 0.12 µM; in assay [1], 0.21 µM; in assay [13], more than 10 µM; in assay [2], 0.019 µM; in assay [5], 3.8 µM. The IC50 in [15] was 0.33 µM; in [17], 0.25 µM; in assay [6] it was more than 10 µM; in assay [7], 0.31 µM; in [8], 5.2 µM; against Casein kinase 2 it was more than 10 µM. Moreover, the IC50 in assay [9] was more than 10 µM; at Insulin receptor, more than 10 µM; in assay [10] it was 3.7 µM; in assay [18], 4.4 µM; in [3], 0.082 µM.
As to `CN1CCN(CCCn2nc(C3=C(c4cn(-c5ccc6ccccc6c5)c5ccccc45)C(=O)NC3=O)c3ccccc32)CC1`, the half-inhibitory concentration (IC50) was found to be 0.32 µM in assay [12], 0.062 µM in [2] and 0.092 µM in assay [14]. The Ki in assay [4] was 0.29 µM.
